In patent US12337003B2, “Pharmaceutical compositions for combination therapy” (Intercept Pharmaceuticals, Inc., priority 2015, dated 2025):

Tested on: leukocyte extravasation signaling
Test: Hepatic gene expression profiling (RNA sequencing, pathway analysis) in APOE*3Leiden.CETP mice
Type: in vivo
Method: This experiment was performed to evaluate the effects of OCA and fenofibrate, alone or in combination, on the development of diet induced NASH and liver fibrosis in APOE*3Leiden.CETP transgenic mice. Hepatic gene expression profiling and subsequent pathway analysis were performed to determine whether the combination regulates novel genes not regulated by either monotherapy treatment, and/or more strongly regulates genes also impacted by the monotherapy.
Mice were fed a high fat chow (HFC) diet for […]. After 15 weeks on the HFC diet, HFC mice were matched into 7 groups based on age, body weight, plasma cholesterol and triglycerides after 4 h fasting. Mice were treated with of OCA and fenofibrate, alone or in combination beginning at week 15 and sacrificed at week 25 in an unfasted state. One week before sacrifice, mice were labeled with D20, by i.p. injection of a bolus of D20 and subsequent addition of 4% D20 to the drinking water. Plasma (EDTA) was obtained by heart puncture and stored at −70° C. The liver was weighed and 4 pieces of liver were isolated: 1 piece (medial lobe) was fixed in 10% formalin (for NASH and fibrosis histology) and 3 pieces (sinister lobe) were snap-frozen in liquid N2 and stored individually at −70° C.
Nucleic acid extraction was performed as described previously in detail (Verschuren et al., 2014). Briefly, total RNA was extracted from individual liver samples using glass beads and RNAzol (Campro Scientific, Veenendaal, The Netherlands). RNA concentration and quality was determined using the Fragment Analyzer (Advanced Analytical Technologies, USA) and the RNA 6000 Nano Lab-on-a-Chip kit and a Bioanalyzer 2100 (Agilent Technologies, Amstelveen, The Netherlands). All samples met the quality requirements and were used in the RNA sequencing procedure.
The NEBNext Ultra Directional RNA library Prep Kit for Illumina was used to process the samples. The sample preparation was performed according to the protocol “NEBNext Ultra Directional RNA Library Prep Kit for Illumina” (NEB #E7420S/L). Briefly, mRNA was isolated from total RNA using oligo-dT magnetic beads. After fragmentation of the mRNA, a cDNA synthesis was performed. This was used for ligation of sequencing adapters and PCR amplification of the resulting product. The quality and yield after sample preparation was measured with the Fragment Analyzer (Advanced Analytical Technologies, USA). The size of the resulting products was consistent with the expected size distribution (a broad peak between 300-500 bp).
Clustering and DNA sequencing using the Illumina […] was performed according manufacturer's protocols. Data was generated using single-end read sequencing protocol obtaining approx. 15 million reads per sample and 75 bp per read. Image analysis, base calling, and quality check was performed with the Illumina data analysis pipeline RTA v2.4.11 to generate the raw data (*.fastq-files).
The reads were mapped to the reference sequence Mus musculus GRCm38.p3 using a short read aligner based on Burrows-Wheeler Transform. The default mismatch rate of 2% (3 mismatches in a read of 150 bases) was used. Based on the mapped read locations in the alignment files (*.bam-files) the frequency of how often a read was mapped on a transcript was determined. The counts were saved to count-files, which served as input for downstream mRNA-seq differential expression analysis. The read counts were loaded into the DESeq package, a statistical package within the R platform. […]

CC[C@H]1[C@@H](O)[C@@H]2[C@H](CC[C@]3(C)[C@@H]([C@H](C)CCC(=O)O)CC[C@@H]23)[C@@]2(C)CC[C@@H](O)C[C@@H]12 [OCA, 3α,7α-dihydroxy-6α-ethyl-5β-cholan-24-oic acid]
number of uniquely regulated genes (Venn diagram, OCA 10 mg/kg, fenofibrate 10 mg/kg, combination): 109 | enrichment analysis of canonical (inflammatory) pathways (liver mRNA, OCA 10 mg/kg and/or low dose fenofibrate vs HFC): regulated several inflammatory processes | regulation of genes of leukocyte extravasation signaling (leukocyte and endothelial cells) (liver mRNA, OCA and/or low dose fenofibrate, relative to vehicle group): downregulates numerous genes
